Measurements published in article PMC9112550, “Optimization of the antimicrobial peptide Bac7 by deep mutational scanning” (BMC Biology, 2022).
Values joined by “and” are separate entries in the source; they are usually repeats but may differ in a detail not shown here. Equal values may be shown once. Where no end group is shown, it is not given here.

Columns and labels:
[1] = system: HEK 293 cells transfected with a luciferase construct; assay: Whole cell translation inhibition assay; assay type: cell-based, human; settings: HEK 293 whole-cell assay; 24 h incubation; luminescence; n = 1
Description: HEK293 cells were cultivated in DMEM medium supplemented with 10% fetal bovine serum and transfected with vector pRM-hFluc carrying a Fluc gene under constitutive CMV promotor control using Xfect™ Transfection Reagent (Takara, Japan) according to the manufacturer’s protocol. Transfected cells were seeded into a 24-well plate 6 h post-transfection and pre-incubated overnight prior to addition of peptides in the next morning. Following 24 h of incubation in the presence of the peptides, cells were lysed using Lysis Buffer (Promega) and the luminescence was measured in a white microtiter plate using the FLx800 luminometer (Bio-Tek Instruments, USA).

mouse red blood cells = assay: Hemolysis assay; assay type: cell-based; settings: 1 h, 37°C, DPBS, relative to Triton-X100 lysis control, triplicates
Description: Mouse blood was obtained from the ETH Phenomics Center. The erythrocytes were isolated by centrifugation at 500 × g for 10 min and removal of the blood plasma. The cells were washed three times by gently resuspending them in an equal volume of DPBS followed by centrifugation. After the last resuspension, the cells were diluted 1:50 in DPBS. For the hemolysis assay, a log2-serial dilution of each peptide was prepared as described for the MIC but using DPBS and 96-well plates (U-bottom, PP, 650201, Greiner) with a final volume of 100 μl. As lysis control, 2.5% Triton-X100 in DPBS was used in well 10, well 11 served as non-treated control (no peptide added), and well 12 as blank. To each well of the dilution plate, 100 μl of the red blood cells suspension was added. The plate was incubated for 1 h at 37°C. After incubation, the plate was centrifuged at 500 × g for 10 min and 100 μl of the supernatant was transferred to a clean 96-well plate (F-bottom, PS, 655101, Greiner). The absorbance was measured at 540 nm using an Infinite M1000 PRO plate reader (Tecan) and corrected by the measurements from the untreated wells. The lysis of each peptide concentration was expressed relative to the lysis control (set as 100% lysis). The hemolysis assay was performed in biological triplicates.

[2] = system: E. coli clinical isolates; assay type: cell-based; settings: clinical isolates of E. coli (n=45) including MDR (ESBL, CRE); MHB II; 18 h, 37°C
E. coli TOP10 [3] = assay type: cell-based
E. coli ATCC 25922 = assay type: cell-based; settings: E. coli ATCC 25922 quality control strain; MHB II; 18 h, 37°C; averaged (n>3)
E. coli BW25113 = assay type: cell-based; settings: E. coli BW25113 parental strain; MHB II; 18 h, 37°C; averaged (n>3)
E. coli TOP10 [4] = assay: Deep mutational scanning, site-saturation Bac7_1-23 library, intracellular self-screening with NGS; assay type: cell-based; settings: intracellular expression
Description: A focused strategy was pursued to generate diversity at positions 5, 18, 19, and 20 in the Bac7_1-23 peptide. […] Degeneration was introduced by using the QuikChange technique, amplifying the pBAD plasmid containing the Bac7_1-23 gene using a mixture of 20 oligonucleotides (Additional file 1: Table S1) at a final concentration of 0.3 μM and Phusion® High-Fidelity PCR Master Mix in HF buffer. The amplification was performed using 20 cycles of 98°C for 10 s, 60°C for 15 s, and 72°C for 10 s. The PCR product was treated with the enzyme Dpn1 to remove the template plasmid and subsequently purified. The purified product was used to transform 20 μl of CloneCatcher™ Gold DH5G Electrocompetent E. coli (Genlantis, Burlington, USA) cells using electroporation.
To assess the antimicrobial activity of multiple peptides in parallel when expressed intracellularly in E. coli TOP10, previously prepared aliquots containing E. coli plasmid libraries created by either random mutagenesis or site-saturation mutagenesis were used. For both approaches, three aliquots containing approximately 500 million cells each of E. coli TOP10 harboring peptide-encoding DNA sequences on the pBAD plasmid were thawed and added to three 1-l baffled shake flasks containing 100 ml of LB medium + 100 μg ml^−1 carbenicillin. The cultures were grown for roughly 7 h at 37°C.

E. coli ribosomes = settings: S30 extract E. coli ATCC 25922; firefly luciferase mRNA; 800 to 0.08 μM; 1 h, 37°C; n = 9; p = 0.15, Wilcoxon, not significant
Description: To measure inhibition of the E. coli ATCC 29522 ribosome, an S30 extract from E. coli cells was purified. E. coli ATCC 25922 was grown in 2 l of liquid LB medium at 37°C and 160 rpm. Cells were harvested in the logarithmic phase by centrifugation for 30 min at 3500 × g at 4°C. The cell pellet was washed with ice-cold S30 buffer (20 mM Tris-acetate pH 8.2, 60 mM potassium acetate, 14 mM magnesium acetate, and 3 mM β-mercaptoethanol) and pelleted again for 30 min at 3500 × g at 4°C. The resulting cell pellet was shock-frozen in liquid nitrogen and stored at −80°C until further processing. Frozen E. coli cells were thawed on ice and resuspended in four times their volume ice-cold S30 buffer. The resulting cell suspension was lysed by passing it twice through a microfluidizer processor (Microfluidics, Westwood, MA, USA) at 25,000 lb/in^2 and the cell lysate was immediately amended with DTT to a final concentration of 1 mM. The lysate was then centrifuged twice for 30 min at 30,000 × g at 4°C. After each centrifugation cycle, the clear supernatant was carefully decanted and the pellet discarded. Aliquots of S30 extract were shock-frozen in liquid nitrogen and stored at −80°C.
Sealed plates were incubated for 1 h at 37°C and stopped on ice before adding 75 μl of luciferase assay reagent (Promega) to each reaction. […]

RRIRIRPPRLPRPRPRPYFMPRP [Bac7PS]
concentration above which increased translational inhibition relative to Bac7_1-23 appeared [1]: above 200 μM
Hemolysis of mouse red blood cells (mouse red blood cells; 1xMIC (MIC measured for E. coli ATCC 25922)): < 4% and 3.1%
Hemolysis of mouse red blood cells (mouse red blood cells; 4xMIC (MIC measured for E. coli ATCC 25922)): < 7% and 3.8%
MIC50 [2]: 2.9 µM
reduction of the MIC vs Bac7_1-23 (E. coli TOP10 [3]): approximately twofold
MIC (E. coli TOP10 [3]; MHB II, 18 h, 37°C, averaged (n>3), <5% of OD of growth control): 2.1 µM
MIC (E. coli ATCC 25922): 2.6 µM
MIC (E. coli BW25113): 3.6 µM
antimicrobial activity in the library (E. coli TOP10 [4]): the most active
mean increase of activity on E. coli ribosomes (translation inhibition IC50) compared to Bac7_1-23 (E. coli ribosomes): 10%
